In assay [1] the target is T1, Bcl-2-related protein A1 (Mus musculus, UniProt Q07440).
T1 sequence (Q07440 whole entry): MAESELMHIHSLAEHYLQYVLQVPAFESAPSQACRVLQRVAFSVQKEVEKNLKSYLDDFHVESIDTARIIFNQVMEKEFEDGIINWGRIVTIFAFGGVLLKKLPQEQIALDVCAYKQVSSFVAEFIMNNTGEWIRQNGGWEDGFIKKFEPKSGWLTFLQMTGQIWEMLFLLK
As to the kind of experiment: displacement of Bid BH3 peptide from Bfl-1 – biochemical, fluorescence polarization, FITC-Bid, mouse, primary screen (AID 432).

The target of assay [2] is T1, Bcl-2-related protein A1. As to the kind of experiment: Bfl-1 binding inhibitors, SAR follow-up, biochemical, fluorescence polarization (AID 1070). A general note: Fluorescence polarisation rises when a labelled molecule tumbles more slowly, as on binding a larger partner.
In assay [3] the target is T1, Bcl-2-related protein A1. As to the kind of experiment: small-molecule antagonists of Bfl-1/BH3 interaction – biochemical, TR-FRET, mouse Bfl-1, confirmation (AID 621). (In general: Time-resolved FRET reads energy transfer from a long-lived donor to a nearby acceptor.)
The target of assay [4] is Glyceraldehyde-3-phosphate dehydrogenase (Homo sapiens, UniProt P04406).
The nature of assay [5]: toxicity toward immortalized ovarian surface epithelium – cell-based, plate reader, dry powder samples, cytotoxicity control for PAX8 inhibitor project, dose response (AID 743045). The format is functional.
The nature of assay [6]: P. falciparum Dd2 growth inhibitors, dose response, SYBR Green, cherry-picked samples (AID 1159567). The format is functional, cell-based.
The nature of assay [7]: blockers of bursicon-stimulated LGR2 cAMP reporter – cell-based, HEK293, CRE-luciferase reporter, cherry pick, set 2, dose response (AID 743343).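 Note: transfected cells were stimulated with diluted bursicon conditioned medium after compound addition.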 The format is functional.
A short description of assay [8]: toxicity to human HepG2 hepatoma cells – cell-based, plate reader, dry powder samples, cytotoxicity control, dose response (AID 1159569).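 Note: inhibitor potency with signal falling toward the positive control level.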 The format is functional.
Assay [9] in a line: OVCAR-3 cell viability loss – plate reader, dry powder samples, PAX8 inhibitor project, dose response (AID 743044). The format is functional, cell-based.
Assay [10] can be described thus: Dd2 parasite growth inhibition in erythrocytes – SYBR Green, dry powder samples, set 9, dose response (AID 1159568). The format is functional, cell-based.
Assay [11] is described as follows: A549 cell cytotoxicity, dose response, cytotoxicity control, plate reader, cherry-pick, antagonist series (AID 743412). The format is functional, cell-based.
Assay [12] in a line: toxicity toward HepG2 liver cells – cell-based, plate reader, cherry-pick, antagonist series, cytotoxicity control, dose response (AID 743416). The format is functional.
The nature of assay [13]: growth inhibition of PfATP4-mutant resistant parasites – NITD609-resistant line, SYBR Green, dry powder, dose response (AID 1159571).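 Note: parasites synchronized at ring stage by sorbitol before testing.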 The format is functional, cell-based.
Assay [14] can be described thus: A2780 cell killing – plate reader, dry powder samples, cytotoxicity control, dose response (AID 743046). The format is functional, cell-based.
Assay [15] is described as follows: Dd2 malaria parasite growth inhibition potency – SYBR Green, dry powder samples, dose response (AID 1159566).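 Note: potency for growth inhibition with lower SYBR green DNA signal.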 The format is functional, cell-based.
Another assay deals with Paired box protein Pax-8 (Homo sapiens, UniProt Q06710). As to the kind of experiment: PAX8 transcriptional activity inhibition in RMG-I – RMG-I cells, luciferase, cherry-pick, dose response (AID 687027).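 Note: luciferase reporter driven by Pax8 target thyroperoxidase promoter measured by SteadyGlo luminescence.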 The format is functional, cell-based.
The nature of assay [16]: growth inhibition of yeast DHODH-expressing 3D7 parasites – SYBR Green, dry powder samples, dose response (AID 1159570).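 Note: parasite growth measured after 72 hours of compound exposure.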 The format is functional, cell-based.
A short description of assay [17]: viability loss in HEK293 cells – cell-based, plate reader, cherry-picked samples, cytotoxicity control, dose response (AID 743446). The format is functional.
Assay [18] is described as follows: OVCAR8 cell viability loss – plate reader, dry powder samples, PAX8 project, dose response (AID 743197). The format is functional, cell-based. Particulars: OVCAR-8.
A short description of assay [19]: IGROV1 cell killing – plate reader, dry powder samples, PAX8 inhibitor project, dose response (AID 743043). The format is functional, cell-based. Particulars: IGROV-1.
Assay [20] can be described thus: blockade of melanocortin 4 receptor signaling – cell-based, plate reader, cherry pick, counter-screen for LGR2 antagonist project, dose response (AID 743444).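 Note: transfected HEK 293 cells stimulated with alpha-MSH peptide; potency of inhibitors of the alpha-MSH evoked signal.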 The format is functional.
Assay [21] is described as follows: cytotoxicity in MITF-independent A375 cells – cell-based, CellTiter-Glo luminescence, dry powder, set 4, counter-screen for MITF inhibitor project, dose response (AID 624364).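 Note: A375 melanoma cells are MITF independent so this is a counter screen.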 As to conditions: A-375. The format is functional.
Assay [22] is described as follows: growth inhibition of MALME3 cells – cell-based, CellTiter-Glo luminescence, dry powder, set 5, orthogonal assay for MITF inhibitor project, dose response (AID 651584). The format is functional. Particulars: MALME-3.
The nature of assay [23]: viability loss in MITF-independent A375 cells – cell-based, CellTiter-Glo luminescence, dry powder, set 7, counter-screen for MITF inhibitor project, dose response (AID 624490). Particulars: A-375. The format is functional. Background: In ATP-based viability assays light output follows the ATP content of the culture.
A short description of assay [24]: cytotoxicity in MITF-independent A375 cells – cell-based, CellTiter-Glo luminescence, dry powder, set 9, counter-screen for MITF modulator project, dose response (AID 651591). The format is functional. As to conditions: A-375.
Assay [25] in a line: growth inhibition of SK-MEL-5 melanoma cells – cell-based, CellTiter-Glo luminescence, dry powder, set 8, orthogonal assay for MITF inhibitor project, dose response (AID 651586). The format is functional.
Assay [26] can be described thus: MITF Measured in Cell-Based System Using Plate Reader - 2084-01_Inhibitor_Dose_DryPowder_Activity_Set7. The format is functional.
Assay [27] in a line: MITF Orthogonal Assay: MALME3 CTG Assay Measured in Cell-Based System Using Plate Reader - 2084-04_Inhibitor_Dose_DryPowder_Activity_Set6. The format is functional. As to conditions: MALME-3.
Assay [28] is described as follows: cytotoxicity in melanoma parental cells – cell-based, CellTiter-Glo, dry powder, set 6, MITF inhibitor project, dose response (AID 624429). The format is functional. Particulars: SK-MEL-5.
Assay [29] can be described thus: MITF Measured in Cell-Based System Using Plate Reader - 2084-01_Inhibitor_Dose_DryPowder_Activity_Set6. The format is functional.
A short description of assay [30]: viability loss in MITF-independent A375 cells – cell-based, CellTiter-Glo luminescence, dry powder, set 6, counter-screen for MITF inhibitor project, dose response (AID 624488). The format is functional. Particulars: A-375.
The nature of assay [31]: inhibitors of TRPM1-promoter reporter in SK-MEL-5 – cell-based, luciferase, dry powder, set 9, MITF inhibitor project, dose response (AID 651588). The format is functional.
The nature of assay [32]: viability loss in MITF-independent A375 cells – cell-based, CellTiter-Glo luminescence, dry powder, set 2, counter-screen for MITF inhibitor project, dose response (AID 624489).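 Note: actives are compounds lowering A375 viability meaning general cytotoxicity.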 The format is functional. Particulars: A-375.
Assay [33] can be described thus: MITF Orthogonal Assay: SK-MEL-5 CTG Assay Measured in Cell-Based System Using Plate Reader - 2084-02_Inhibitor_Dose_DryPowder_Activity_Set5. The format is functional.
Assay [34] has as its target T2, NADPH oxidase 1 (Homo sapiens, UniProt Q9Y5S8).
T2 sequence (Q9Y5S8 whole entry): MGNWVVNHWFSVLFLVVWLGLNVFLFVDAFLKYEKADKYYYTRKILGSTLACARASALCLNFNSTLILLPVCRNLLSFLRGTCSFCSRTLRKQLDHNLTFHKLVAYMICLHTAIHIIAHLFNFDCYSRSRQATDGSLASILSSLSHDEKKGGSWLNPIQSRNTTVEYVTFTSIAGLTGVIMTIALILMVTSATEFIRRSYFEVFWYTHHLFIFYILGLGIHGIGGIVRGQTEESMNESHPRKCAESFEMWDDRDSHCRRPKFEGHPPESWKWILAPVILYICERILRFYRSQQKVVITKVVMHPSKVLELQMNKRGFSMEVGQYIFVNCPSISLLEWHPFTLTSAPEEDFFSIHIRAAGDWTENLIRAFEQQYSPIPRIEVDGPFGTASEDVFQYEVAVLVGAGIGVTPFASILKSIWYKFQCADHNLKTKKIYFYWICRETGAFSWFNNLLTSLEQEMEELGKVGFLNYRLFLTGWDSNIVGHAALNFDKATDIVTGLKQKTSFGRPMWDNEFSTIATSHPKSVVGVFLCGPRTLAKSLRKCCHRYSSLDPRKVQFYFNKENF
As to the kind of experiment: potency of NOX1 inhibition in cells – cell-based, luminescence, cherry picks 2, dose response (AID 434997). The format is functional.

Assay [35] has as its target T2, NADPH oxidase 1. As to the kind of experiment: Late stage results from the probe development effort to identify inhibitors of NOX1: HEK/293 IC50. [Related pubchem assays: 1796 (Summary AID (NOX1)), 2752 (Primary screen (NOX1 inhibitors, synthesized analogs set 2)), 2664 (Primary screen (NOX1 inhibitors, synthesized analogs)), 1792 (Primary Screen (NOX1)), 2545 (Confirmation screen (NOX1 …. The format is functional.

Assay [36] is described as follows: rise of 4N DNA cells, HeLa – IC50, dose response (AID 1117351). The format is functional, cell-based.
A short description of assay [37]: RKO cell viability reduction, dose response, CellTiter-Glo luminescence (AID 1117322). The format is functional.
The nature of assay [38]: microbe, parasite or virus in culture. The format is functional. As to conditions: Mycobacterium tuberculosis.
The next assay relates to P388/ADR. As to the kind of experiment: cells. The format is functional. As to conditions: Mus musculus.
Assay [39] in a line: HCT116 cell viability decrease, GSK3B pretreatment – CellTiter-Glo, IC50, dose response (AID 1117339). As to conditions: HCT-116. The format is functional.
Assay [40] is described as follows: rise of 2N DNA cells, HeLa – IC50, dose response (AID 1117349). The format is functional, cell-based.
Assay [41] in a line: cytotoxicity toward HT-29 cells – cell-based, CellTiter-Glo luminescence, IC50, dose response (AID 1117330). The format is functional.
The next assay has as its system SN12K1. As to the kind of experiment: cells. The format is functional. As to conditions: Homo sapiens.
Another assay has as its system P388. As to the kind of experiment: cells. The format is functional. As to conditions: Mus musculus.
Assay [42] can be described thus: IC50 of insulin release inhibition, rat insulinoma INS-1E line, 5 mM glucose, cell-based (AID 1117331). The format is functional.

Structures are written as SMILES. Values joined by “and” are separate entries in the source; they are usually repeats but may differ in a detail not shown here. Equal values may be shown once. Active and inactive are the calls of the source.

A word on the IC50: it is the concentration at which inhibition is half-maximal. The term AC50 denotes the concentration giving half of the maximal activity seen. As usually defined, the GI50 is the concentration that inhibits growth by half.

Paired box protein Pax-8, sequence (Q06710 whole entry): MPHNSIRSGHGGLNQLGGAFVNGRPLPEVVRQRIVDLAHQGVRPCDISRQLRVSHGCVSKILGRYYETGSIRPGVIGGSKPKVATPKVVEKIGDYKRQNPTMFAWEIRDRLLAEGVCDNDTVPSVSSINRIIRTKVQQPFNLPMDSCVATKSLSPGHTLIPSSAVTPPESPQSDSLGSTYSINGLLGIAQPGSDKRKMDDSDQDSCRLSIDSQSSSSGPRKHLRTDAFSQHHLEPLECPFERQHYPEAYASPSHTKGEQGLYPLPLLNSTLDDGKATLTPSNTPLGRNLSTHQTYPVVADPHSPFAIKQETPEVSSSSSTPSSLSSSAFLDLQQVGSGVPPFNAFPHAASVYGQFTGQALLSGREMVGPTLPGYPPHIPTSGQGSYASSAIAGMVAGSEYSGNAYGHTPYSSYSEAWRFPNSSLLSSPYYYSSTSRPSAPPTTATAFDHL
Glyceraldehyde-3-phosphate dehydrogenase, sequence (P04406 whole entry): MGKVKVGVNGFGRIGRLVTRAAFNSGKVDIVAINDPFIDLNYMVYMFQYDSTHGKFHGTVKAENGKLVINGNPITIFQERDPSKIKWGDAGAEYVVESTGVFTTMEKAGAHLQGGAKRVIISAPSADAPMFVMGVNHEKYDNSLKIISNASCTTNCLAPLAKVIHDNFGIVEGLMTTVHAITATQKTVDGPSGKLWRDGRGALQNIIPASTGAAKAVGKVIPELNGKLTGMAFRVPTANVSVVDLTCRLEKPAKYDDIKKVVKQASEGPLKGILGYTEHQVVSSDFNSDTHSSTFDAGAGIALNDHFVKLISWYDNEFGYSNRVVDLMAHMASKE

With `COc1ccccc1C(=O)C1Nc2ccccc2-c2nnc(SC)nc2O1` (stereo unspecified), the IC50 at Bcl-2-related protein A1 [1] is 4.79 µM (active); at Bcl-2-related protein A1 [2] it was > 100 µM (not active); at Bcl-2-related protein A1 [3] it was > 100 µM (not active) and 4.6 µM (active); in assay [4] it was > 100 µM (not active).
In the case of `O=C(C1CC1)N1C[C@@H]2N[C@H](C1)[C@@H]2c1ccc(-c2ccccc2F)cc1`, the AC50 in assay [5] was 3.24 µM (active); in assay [6] it was 0.584 µM (active); in assay [7], 2.25 µM (active); in [8], 32.3 µM (active); in assay [9] it was 5.96 µM (active); in assay [10], 0.83 µM (active). Also, the AC50 in assay [11] was 1.84 µM (active); in assay [12], 4.58 µM (active); in assay [13], 0.225 µM (active); in [14], 5.34 µM (active); in assay [15] it was 0.145 µM (active); on Paired box protein Pax-8, 1.2 µM (active). The AC50 in assay [16] was 0.139 µM (active); in assay [17] it was 4.12 µM (active); in assay [18], 2.72 µM (active); in [19] it was 4.13 µM (active); in [20], 2.57 µM (active).
Regarding `NC1=C(NC(=O)c2ccccc2)C(=O)c2ccccc2C1=O`, the AC50 in assay [21] was > 70 µM (inactive); in assay [22], 14.3 µM (active); in [23], > 70 µM (inactive); in assay [24] it was > 70 µM (inactive); in assay [25], 10.1 µM (active); in [26], 7.02 µM (active). In addition, the AC50 in assay [27] was 14.3 µM (active); in assay [28], 9.56 µM (active); in [29], 4.07 µM (active); in assay [30], 60.3 µM (active); in [31], 18.6 µM (active); in [32], 59.8 µM (active). For the same compound, the AC50 in assay [33] was 6.7 µM (active).
With `COc1cc(-c2nc(-c3ccccc3)c(-c3ccccc3)[nH]2)ccc1O`, the figures for the IC50 at NADPH oxidase 1 [34] and at NADPH oxidase 1 [35] were 0.37 µM (active) and 1.81 µM (active), respectively.
For the compound `CO[C@@]12[C@H](COC(N)=O)C3=C(C(=O)C(C)=C(N)C3=O)N1C[C@@H]1N[C@@H]12` [MITOMYCIN], the IC50 was > 10 µM (inactive) in assay [36]; 0.995 µM (active) in [37]; > 20 µM (inactive) in assay [39]; 0.0133 µM (active) in assay [40]; 2.57 µM (active) in assay [41]. Further, the CC50 in assay [38] was > 40 µM (active). In addition, the values for the GI50 with P388/ADR, with SN12K1 and with P388 were 1.39 µM (inactive), 0.959 µM (active) and 0.181 µM (active), respectively.
With `COCCCOc1ccnc(C[S+]([O-])c2nc3ccccc3[nH]2)c1C` (stereo unspecified) [RABEPRAZOLE SODIUM], in assay [42], the IC50 is > 33.3 µM (inactive).

(Values after ChEMBL document CHEMBL1201862, “PubChem BioAssay data set” (2004).)
